Test results taken from article PMC8200211, “PTD4 Peptide Increases Neural Viability in an In Vitro Model of Acute Ischemic Stroke” (International Journal of Molecular Sciences, 2021).
Entries after “also recorded” stand apart in the source; their conditions may differ. Like-named read-outs stand apart in the source and are kept apart here. Where no end group is shown, it is not given here.

Columns and labels:
[1] = test system: primary neural cortical cultures; test: Peptide neurotoxicity, CellTiter-Blue viability assay; format: cell-based, Wistar rat; details: for Neural viability, relative to non-insulted control: 100 µM; for Concentration at which neurotoxic impact was visible: tested 1, 10, 50, 100, 200 µM
Procedure: (§1) All animal experiments were conducted in accord with the permission of the Local Bioethics Committee. Primary cortical neurons were isolated from Wistar rat embryos at embryonic day 18.5 (E18.5). Pregnant females were euthanized in a CO2 chamber, and the embryos were immediately removed in order to microdissect the brains. The cortices were excised, transferred to Hank’s Balanced Salt Solution (HBSS, Gibco, Waltham, MA, USA), supplemented with a 1% penicillin/streptomycin mixture (Gibco, Waltham, MA, USA) and washed. Afterwards, the tissue was trypsinized (2.5% trypsin, Gibco, Waltham, MA, USA) for 10 min at 37 °C, and homogenized gently by re-suspension with a sterile tip of a pipette. The cell suspension was centrifuged in 300 rcf for 4 min and re-suspended in Neurobasal-A medium (Gibco, Waltham, MA, USA) supplemented to final concentration with 1 mM sodium pyruvate, 12.5 mM glucose 2% B27 (Gibco, Waltham, MA, USA), […] L-glutamine, […], a 1% penicillin/streptomycin mixture, and seeded in a 24-well plate poly-D-lysine (PDL)-coated (BioCoat, Corning, Tewksburry, MA, USA) in the number of 200,000 cells per well. The neural cultures were incubated in a CO2 chamber (5%, 95% air balance, 98% humidity, 37 °C) for 14 days and were used on culture day in vitro (DIV) 14–15.
The influence of all peptides on neural viability was assessed by exposing the cells to different peptide concentrations (1, 10, 50, 100, 200 µM) for 20 h at 37 °C in a 5% CO2 chamber. The assessments were performed in 24-well PDL-coated plates (BioCoat, Corning, Tewksbury, MA, USA) with a working volume of 500 µL/well. The respective peptide solutions were prepared in culture medium so that in all wells only 50 µL of the medium was exchanged, including control (untreated) samples.
Neural viability was assessed in CellTiter-Blue® (CTB) assay (Promega, cat #G8080, Madison, WI, USA) after 20 h long incubation of cells in standard Neurobasal medium after stressful conditions. The test was performed in 24-well PDL-coated plates (BioCoat, Corning, Tewksbury, MA, USA) and according to the manufacturer’s guideline, which included adding the solution to the neural culture well, followed by incubation for 1–4 h at 37 °C (5% CO2). The fluorescence intensity of the CTB reagent was measured spectrofluorimetrically (560ex/590em) and was proportional to the number of viable cells. The results were calculated as a percentage taking the respective control (non-insulted) measurement as 100% viability.
Each cell viability experiment was performed in at least three biologically independent experiments, in each of which neural cultures were obtained from one female rat. Each female originated from different breeding parents. In one experiment, the viability assessments for each condition were conducted in three plates, with three–four replicate wells per plate. For every plate, relative viability for one condition were averaged, and then used to calculate averaged results for all plates in an experiment. The final values were calculated from averaged results of independent experiments and shown as a mean ± standard deviation (SD), n = 3. The data were analyzed by a two-way ANOVA test with p-value < 0.05 values considered statistically significant.

[2] = test system: pre-insulted rat primary neural culture; test: Pro-viable effect of peptides in a multifactorial in vitro model of acute ischemic stroke, CellTiter-Blue; format: cell-based, Wistar rat; details: 1 h, then 50 µM peptide 20 h; for Neuroprotection against excitotoxicity: 400 µM glutamic acid, 800 µM NMDA or 800 µM kainic acid
Procedure: as §1, with “14–15. […]” for “14–15.”
Neural viability was assessed in CellTiter-Blue® (CTB) assay (Promega, cat #G8080, Madison, WI, USA) after 20 h long incubation of cells in standard Neurobasal medium after stressful conditions. […] The fluorescence intensity of the CTB reagent was measured spectrofluorimetrically (560ex/590em) and was proportional to the number of viable cells. The results were calculated as a percentage taking the respective control (non-insulted) measurement as 100% viability. […]

cell membrane = details: previous reports; cited from earlier work
From the text: Comparing the native Tat(49–57)-NH2 and PTD4, the latter appeared as a better-performing neuroprotectant in the AIS model. Mechanistically, this may indicate a possible correlation between neuroprotection and the structural and acid-base peptide properties.

C#CC(=O)N[C@@H](CCCNC(=N)N)C(=O)N[C@@H](CCCCN)C(=O)N[C@@H](CCCCN)C(=O)N[C@@H](CCCNC(=N)N)C(=O)N[C@@H](CCCNC(=N)N)C(=O)N[C@@H](CCC(N)=O)C(=O)N[C@@H](CCCNC(=N)N)C(=O)N[C@@H](CCCNC(=N)N)C(=O)N[C@@H](CCCNC(=N)N)C(N)=O [Prop-Tat]
Neural viability, relative to non-insulted control [1]: < 10% | Concentration at which neurotoxic impact was visible ([1]; 20 h exposure, CTB assay): 1 µM

CC[C@H](C)[C@H](NC(=O)[C@H](CCCCN)NC(=O)[C@H](CCCCN)NC(=O)[C@H](C)NC(=O)[C@H](CC(C)C)NC(=O)[C@H](C)NC(=O)[C@H](C)NC(=O)[C@H](CC(C)C)NC(=O)[C@H](C)NC(=O)[C@H](CCCCN)NC(=O)[C@H](CC(C)C)NC(=O)[C@H](CC(N)=O)NC(=O)[C@@H](NC(=O)[C@H](CCCCN)NC(=O)CNC(=O)[C@H](CC(C)C)NC(=O)[C@H](CC(C)C)NC(=O)[C@H](Cc1ccc(O)cc1)NC(=O)CNC(=O)[C@H](C)N)[C@@H](C)CC)C(=O)N[C@@H](CC(C)C)C(N)=O [TP10, reference compound]
Neural viability, relative to non-insulted control [1]: < 10% | Neurotoxicity ranking among the peptides tested ([1]; 1-200 µM, 20 h exposure, CTB assay): highest toxicity | Concentration at which neurotoxic impact was visible ([1]; 20 h exposure, CTB assay): 1 µM

RKKR^52RQRRR^57-amide [Tat(49–57)-NH2, reference compound]
Neurotoxicity at higher concentrations ([1]; >100 µM, 20 h exposure, CTB assay, n = 3): most toxic impact; also recorded: significantly neurotoxic | Neuroprotection against excitotoxicity [2]: significant neuroprotection

YARAAARQARA-NH2 [PTD4, less basic Ala-substituted analogue of Tat(49–57)-NH2, cell-penetrating peptide]
Highest non-toxic concentration [1]: 50 µM | Neurotoxicity at higher concentrations [1]: significantly neurotoxic | Neurotoxicity at low concentrations [1]: negligible | Neurotoxicity ranking among the peptides tested [1]: lowest neurotoxicity | Neuroprotection against excitotoxicity [2]: significant neuroprotection | Pro-viable activity against acidosis ([2]; acidosis pH 6.35, 200 mM sodium lactate): displayed pro-viable activity | Efficiency of peptide translocation across the cell membrane compared to Tat(49–57)-NH2 (cell membrane): almost thirty times higher
